# In publication PMC2751816, “Functional, Non-Clonal IgM^a-Restricted B Cell Receptor Interactions with the HIV-1 Envelope gp41 Membrane Proximal External Region” (PLoS ONE, 2009):
# “Also recorded” adds a separate entry of the source.
# Columns and labels:
# [1] = tested on: splenic B cells, C57BL/6 congenic (IgH^a); experiment: Flow cytometry: tetramer staining of splenic B cells from C57BL/6 congenic (IgH^a) mice; assay type: cell-based, mouse (B6Igh^a); details: C57BL/6 mice homozygous for Igh^a; Fig. 5
# Protocol: (§1) N-biotinylated, linker/spacer-containing peptides used to make tetramers are detailed in Table S4 and Fig. 7A. Peptides were synthesized and purified using reverse-phase HPLC (Primm Biotechnology). To produce tetramerized forms of each peptides, 200 µM peptide and 6 µM APC-labeled streptavadin (SA) were combined at equal volumes, and mixtures were incubated at 4°C for 4 h. Unbound peptide was removed from peptide-APC complexes by centrifugal filtration using an Amicon Centriprep YM30 column (Millipore Corporation). Purified tetramer preparations were determined using the Micro BSA protein assay kit (Pierce Biotechnology).
# Female C57BL/6, BALB/c, B6Igh^a, and CB17 (BALBc Igh^b) inbred mouse strains (8–12 wks of age) were purchased from Charles River Laboratories. All mice were housed in the Duke University Animal Facility in a pathogen-free environment with 12 h light/dark cycles at 20–25°C under AALAC guidelines and in accordance with all Institutional Animal Care and Use Committee and Duke University Institutional Biosafety Committee-approved animal protocols. […]
# FACS staining of single cell suspensions (≥2×10^6) was conducted using pre-mixed combinations of fluorochrome-labeled Abs and APC-conjugated B cell tetramers at empirically-determined optimal concentrations. […]
# MZ and B1 B cells = details: gp41 MPER-immunized BALB/c mice; ref L. Verkoczy and B. Haynes, unpublished results; cited from earlier work
# From the text: Classical B-cell sAgs, like the S. aureus protein A subunit (SpA), can bind to and activate large populations of B cells, may cause selective deletion of MZ and B1 B cell subsets, and bind to B cells based on VH family usage, [52]. Similarly, sAg interactions of HIV-1 gp120 with human B cells have been described (reviewed in [37] and [53]–[56]), resulting in a VH3-skewed repertoire in HIV-1 infected individuals (reviewed in [57] and [58]–[60]). […] In this context, one obvious question arising from our studies is what are the physiological consequences of weak and/or incomplete signaling by gp41 MPER (Fig. 8). One possibility is that incomplete activation of B cells by low affinity MPER binding could suppress the T-independent component of MPER Ab respon ...
# [2] = tested on: naïve splenic BALB/c B cells; experiment: Flow cytometry: APC-labeled tetramer staining of BALB/c splenic B cells; assay type: cell-based, mouse (BALB/c)
# Protocol: as §1
# FACS staining of single cell suspensions (≥2×10^6) was conducted using pre-mixed combinations of fluorochrome-labeled Abs and APC-conjugated B cell tetramers at empirically-determined optimal concentrations. All Abs were from BD unless otherwise stated. Primary antibodies used were: PerCP anti-B220, FITC anti-IgD, FITC, PE or PE-Cy7 anti-IgM, PE anti-CD5, FITC anti-CD11b, PE-Cy7 anti-CD19, FITC anti-CD21, PE-Cy7 anti-CD23 (eBiosciences), and PE-Cy7 anti-CD93 (eBiosciences). Other reagents included biotinylated Abs against dump channel markers: Thy1 (Abcam), F4/80 (Abcam), CD11c, Gr-1, TER-119, and NK-1.1, secondary staining SA-Texas Red conjugate; v-amine live/dead violet dye (Molecular Probes), and Fc block (anti-CD16/32).
# Staining was conducted at 4°C in several sequential steps in FACS staining buffer (1X PBS with 2% FCS, 0.1% NaN3), washing twice between steps. Cells were first incubated with v-amine live/dead dye for 15 min, then stained with APC-labeled tetramers for 30 min (and in some experiments, cold tetramer was incubated at 10 fold molar excess for 1 h, prior to staining with APC-labeled tetramers). Cells were then stained with Fc block, followed by incubation with combinations of primary Abs, and secondary staining with SA-Texas Red, each for 30 min. Data (≥2.5×10^5 events/sample) were acquired using an LSRII flow cytometer and Cell Quest software (BD Immunocytometry systems). FACS Analysis was performed using FlowJo software (Tree Star). For analysis, cells were gated in the following order: single cells were gated based on fsc height vs. fsc area+ssc height vs. ssc profiles, lymphocytes were gated on fsc and ssc profile, residual dead cells were excluded by negative gating with v-amine live/dead dye, and irrelevant non-B cells were excluded by negative gating with dump markers.
# [3] = tested on: expressed IgM^+ VH repertoire of splenic BALB/c B cells; experiment: VH family usage in gp41 MPER tetramer-sorted IgM^+ B cells (5' RACE); design: species or system mouse (BALB/c); details: compared to total IgM^+ BALB/c B cells; Fisher Exact test; two sorts; Fig. 6B
# From the text: For sorting of gp41 MPER tetramer-binding B cells, single cell splenic suspensions were obtained from 5–10 naïve BALB/c 8 wk females, pooled, and purified by negative depletion with CD43 MACS beads (Miltenyi Biotechnology). The resulting B cell enriched fraction was stained as described in the flow cytometry methods section and sorted into B220^+ CD19^+ gp41 MPER^+ fractions using a BDFACS Aria. Sorting gates for the gp41 MPER^+ fractions were set to include all events greater than baseline staining without tetramer. Purity of sorted populations was verified by a 1000-event post-sort step.
# For 5′ RACE analysis, gp41 MPER^+ fractions (or purified, unsorted splenic B cells) were spun down and washed, immediately after sorting. DNAse-free RNA was extracted and concentrated using RNEasy Mini and Micro kits, respectively (Qiagen) and quantitated using a NanoDrop ND-1000 spectrophotometer (Fisher). cDNA was synthesized by oligo-dT priming using SuperScript III (Invitrogen) and IgM-specific 5′ RACE products were amplified with the First Choice RLM-RACE PCR kit (Ambion), using mouse HC̃-specific primers in combination with 5′ RACE primers, according to the manufacturer's instructions. PCR products were cloned into pGEM-T Easy vectors (Promega), transformed in GC5 competent cells (CLP), and transformant DNA was isolated, sequenced and analyzed in Ig Blast.
sequence,measurement,setting,value
"QQEKNEQELLELDKWASLWN [gp41 MPER tetramer, (residues 659–678 of the HIV-1 envelope)]",gp41 MPER binding in congenic mice (in words),[1],exhibited gp41 MPER binding identical to BALB/c animals
same,B cell subset deletion after immunization (in words),MZ and B1 B cells,partial deletion of MZ and B1 B cells in gp41 MPER-immunized BALB/c mice; also recorded: reduced MZ B cell populations in gp41 MPER-immunized BALB/c mice
same,MFI binding pattern (in words),"[2]; BALB/c B cell subsets, Fig. 1A, 2A, Table S1","the majority of MPER-reactive B cells within BALB/c subsets shifted as “low avidity” shoulders, with an additional, small fraction binding as a “higher-avidity” MFI tail"
same,gp41 MPER reactivity among B cell subsets (in words),"[2]; BALB/c splenic and peritoneal subsets, MFI and frequency, Fig. 2, Tables S1, S2",gp41 MPER reactivity was strongest in marginal zone (MZ) and peritoneal B1 B cell subsets of BALB/c mice; also recorded: exhibited lower levels of gp41 MPER binding
same,fraction of all B cells labeled at saturating tetramer,"[2]; BALB/c splenocytes, 10 µg/10^6 splenocytes, Fig. 1B",~25%
same,tetramer amount giving saturating binding,"[2]; BALB/c splenocytes, Fig. 1B",10 µg/10^6 splenocytes
same,tetramer amount with highest gp41 MPER/scrambled gp41 MPER binding ratio,"[2]; BALB/c splenocytes, sub-saturating, Fig. 1B",100 ng/10^6 splenocytes
same,frequency of binding to BALB/c B cells,"[2]; high-frequency binding, 100 ng tetramer/10^6 cells",≥ 5%
same,gp41 MPER binding over wide tetramer concentration range (in words),"[2]; serial dilutions, MFI and fraction of labeled B cells, Fig. 1B","Elevated gp41 MPER binding to BALB/c cells, relative to C57BL/6 B cells, was observed at all concentrations of tetramers carrying MPER peptide; also recorded: substantially elevated relative to the scrambled peptide controls"
same,percentage of tetramer-reactive B cells,"[2]; total splenic B cells (CD19^+), naïve BALB/c, APC tetramer 100 ng/10^6 splenocytes, above background without tetramer, Fig. 1A representative histogram",~7%
same,VH family usage in gp41 MPER-reactive B cells (in words),[3],"most VH families were utilized at statistically comparable levels in gp41 MPER-reactive B cells, with the exception of two overutilized VH families: 36–60 and 7183"
